Data as given in US20240041050A1, “CELL PENETRATING PEPTIDE MEDIATED RNA TRANSDUCTION WITHIN INSECT CELLS” (PIONEER HI-BRED INTERNATIONAL, INC., priority 2020, published 2024).
Ends that are not written are not given here.

How the values were obtained:
[1] = system: western corn rootworm (WCR) larvae; assay: Oral toxicity screening of CPPs in artificial diet; assay type: in vivo; conditions: first instar WCR larvae; for Affected (%): mortality and stunting
Procedure: Briefly, CPPs were incorporated into standard WCR artificial diet in 96-well microtiter plate format. A 25 μL aliquot of dosing solution was combined with 75 μL molten low-melt WCR diet and shaken on an orbital shaker to mix. Once diet solidified, preconditioned first instar WCR (freshly-hatched insects placed on neutral diet for 24 hours prior to transfer to test diet) were added to the diet plates at a rate of 1 insect·well^−1. Plates were placed inside an incubator (Percival Scientific, Inc., Perry, IA) set to 27° C., 65% RH, and a 24-hour dark cycle. The assay was scored for mortality and stunting affects after 7 and 12 days, without diet refresh, on a 0-3 scale, where 3=mortality, 2=severe stunting, 1=stunting, 0=no affect when compared with untreated larvae. The assay was repeated three times and end-results were tabulated using all three replicates and converted to percentages (Table 5).

Sf9 cells = assay: CPP-mediated delivery of mCherry mRNA cargo into insect cells; assay type: cell-based, Spodoptera frugiperda; conditions: complex of 75 μM unlabeled CPP and 10 μg mCherry mRNA, overnight
Text: (§1) Sample preparation and analysis methods were based on those previously reported (Jafari et al. (201 4) “Serum stability and physicochemical characterization of a novel amphipathic peptide C6M 1 for siRNA delivery”, PLoS One, 9(5), e97797; and Gillet et al. (2017) “Investigating Engineered Ribonucleoprotein Particles to Improve Oral RNAi Delivery in Crop Insect Pests”, Frontiers in Physiology, 8(256), doi: 10.3389/fphys.2017.00256). Reagents are described in Examples 1 and 2. Nanocomplex samples were prepared in one of several ways, depending on type of CPP, RNA, or assay. […] Reaction volumes added to cells were 6.38 μL CPP and 6.38 μL mRNA. Final optimal CPP concentration was assessed by amount of fluorescent signal apparent within cells. For insect cell-based assays with CPP-YFP·Cy3-dsRNA or CPP·dsRNA, first a complex formation solution was prepared in molecular biology-grade water containing 90 mg·mL^−1 maltose, 9 mg·mL^−1 mannitol, 392. 16 mM CaCI2, pH 7.0, and vacuum-filtered using Corning™ Disposable Vacuum Filter and Storage System containing a cellulose nitrate filter. Then, increasing amounts of CPP-YFP were added to Cy3-dsRNA, from a molar ratio (CPP-YFP:Cy3-dsRNA) of 1:4 through 8:1 and incubated protected from light at 25° C. for 90 minutes prior to assessment via gel shift and DLS. Reaction volumes added per cell well were comprised of 17 μL reaction solution, 1 μL CPP, 1 μL dsRNA, and 1 μL molecular biology grade water; reaction sizes for larger total volumes were increased in increments of 20 μL and component ratio was held constant to maintain an ionic strength of […]. Final optimal molar ratio selected for cell experiments were determined by increase of the apparent size of the Cy3-dsRNA band on a native agarose gel (FIG. 2A and FIG. 2B), and/or appearance and increase in size of the complex peak detected by a Zetasizer Ultra (Malvern Panalytical, Malvern, United Kingdom) DLS instrument (FIG. 2C). […] Final optimal BAPC1 concentration was assessed by amount of fluorescent signal apparent within cells. […]

DU182A cells = assay: as above; assay type: cell-based, Diabrotica undecimpunctata; conditions: complex of 75 μM unlabeled CPP and 10 μg mCherry mRNA, overnight
Text: as §1

DvWL2 cells = assay: as above; assay type: cell-based, Diabrotica virgifera virgifera; conditions: complex of 75 μM unlabeled CPP and 10 μg mCherry mRNA, overnight
Text: as §1

Molecule | Affected (%) ([1]; 0.195 ppm in artificial diet) | Affected (%) ([1]; 0.391 ppm in artificial diet) | Affected (%) ([1]; 0.781 ppm in artificial diet) | Affected (%) ([1]; 1.56 ppm in artificial diet) | Affected (%) ([1]; 3.13 ppm in artificial diet) | Affected (%) ([1]; 6.25 ppm in artificial diet) | Affected (%) ([1]; 12.5 ppm in artificial diet) | Affected (%) ([1]; 25.0 ppm in artificial diet) | Affected (%) ([1]; 50.0 ppm in artificial diet) | Affected (%) ([1]; 100 ppm in artificial diet) | Affected (%) ([1]; 200 ppm in artificial diet) | fluorescent protein translated from delivered mCherry mRNA (fluorescent signal inside cells) (Sf9 cells) | fluorescent protein translated from delivered mCherry mRNA (fluorescent signal inside cells) (DU182A cells) | fluorescent protein translated from delivered mCherry mRNA (fluorescent signal inside cells) (DvWL2 cells) | Mortality (%) ([1]; 0.195 ppm in artificial diet) | Mortality (%) ([1]; 0.391 ppm in artificial diet) | Mortality (%) ([1]; 0.781 ppm in artificial diet) | Mortality (%) ([1]; 1.56 ppm in artificial diet) | Mortality (%) ([1]; 3.13 ppm in artificial diet) | Mortality (%) ([1]; 6.25 ppm in artificial diet) | also measured
CSCC[C@H](NC(=O)[C@@H](NC(=O)[C@H](CO)NC(=O)CNC(=O)[C@H](C)NC(=O)[C@H](C)NC(=O)CNC(=O)[C@H](CC(C)C)NC(=O)[C@H](Cc1ccccc1)NC(=O)CNC(=O)[C@H](CC(C)C)NC(=O)[C@H](Cc1ccccc1)NC(=O)[C@H](CC(C)C)NC(=O)[C@H](C)NC(=O)CN)[C@@H](C)O)C(=O)NCC(=O)N[C@@H](C)C(=O)N[C@@H](Cc1c[nH]c2ccccc12)C(=O)N[C@@H](CO)C(=O)N[C@@H](CCC(N)=O)C(=O)N1CCC[C@H]1C(=O)N[C@@H](CCCCN)C(=O)N[C@@H](CO)C(=O)N[C@@H](CCCCN)C(=O)N[C@@H](CCCNC(=N)N)C(=O)N[C@@H](CCCCN)C(=O)N[C@H](C(=O)O)C(C)C [MPG] | 0% | 0% | 0% | 0% | 0% | 0% | 0% | 0% | 0% | 0% | 0% | Translation of mRNA into a functional fluorescent protein occurred | Translation of mRNA into a functional fluorescent protein occurred | Translation of mRNA into a functional fluorescent protein occurred |  |  |  |  |  |  | 
KQINNWFINQRKRHWK [Knotted-1, KQINNWFINQRKRHWK] | 0% | 0% | 0% | 0% | 0% | 0% | 0% | 0% | 0% | 0% | 0% | Translation of mRNA into a functional fluorescent protein occurred | Translation of mRNA into a functional fluorescent protein occurred | Translation of mRNA into a functional fluorescent protein occurred | 0% | 0% | 0% | 0% | 0% | 0% | Mortality (%) ([1]; 12.5 ppm in artificial diet): 0%; Mortality (%) ([1]; 25.0 ppm in artificial diet): 0%; Mortality (%) ([1]; 50.0 ppm in artificial diet): 0%; Mortality (%) ([1]; 100 ppm in artificial diet): 0%; Mortality (%) ([1]; 200 ppm in artificial diet): 0%
VRLPPPVRLPPPLVRPPPL [VRLPPPVRLPPPLVRPPPL] | 0% | 0% | 0% | 0% | 0% | 0% | 0% | 0% | 0% | 0% | 0% |  |  |  | 0% | 0% | 0% | 0% | 0% | 0% | Mortality (%) ([1]; 12.5 ppm in artificial diet): 0%; Mortality (%) ([1]; 25.0 ppm in artificial diet): 0%; Mortality (%) ([1]; 50.0 ppm in artificial diet): 0%; Mortality (%) ([1]; 100 ppm in artificial diet): 0%; Mortality (%) ([1]; 200 ppm in artificial diet): 0%
